Results from article PMC5053523, “In Vitro Antibacterial Activity of Rhodanine Derivatives against Pathogenic Clinical Isolates” (PLoS ONE, 2016).
Converted amounts (≈) assume the structure as drawn. Read-outs that look alike come from different tables or passages of the source.

Legend:
[1] = tested on: MRSA USA300; experiment: MIC against MRSA USA300 with and without 4% human serum albumin; assay type: cell-based, Staphylococcus aureus; conditions: for antibacterial activity in the presence or absence of HSA: MRSA USA300; for MIC: Staphylococcus aureus, read-out: MIC against MRSA USA300
Protocol: The minimum inhibitory concentration (MIC) and the minimum bactericidal concentration (MBC) of rhodanine compounds 1 to 7 were determined against various Gram-positive and Gram-negative pathogens (S1 Table) following the guidelines of the Clinical and Laboratory Standards Institute (CLSI)[4]. The broth microdilution technique was used, followed by subculturing on agar plates that were rhodanine—free. […] The MICs reported represent the lowest concentration of each compound necessary to inhibit bacterial growth and the MBCs represent the lowest concentration required to reduce the initial bacterial inoculum by ≥ 99.9%.
The antimicrobial activity of rhodanine compounds in the presence of 4% human serum albumin (HSA) was tested against MRSA USA300. The MICs of rhodanine compounds and control antibiotics (vancomycin and daptomycin) were tested as described in the methods above using tryptic soy broth spiked with 4% HSA. We also synthesized and tested three more compounds, ethyl ester and amide of rhodanine 2 (Rh 8 and Rh 10, respectively) and ethyl ester of rhodanine 3 (Rh 9) to determine the influence of a carboxyl group modification toward anti-MRSA activity and human serum albumin (HSA) binding.

[2] = tested on: Escherichia coli O157:H7; experiment: MIC with/without PMBN, Escherichia coli O157:H7; assay type: cell-based
Protocol: (§1) The MIC of the rhodanines and control antibiotics, in the presence of a sub-inhibitory concentration of colistin or polymixin B nonapeptide (PMBN), against Gram-negative bacteria was evaluated as described before. The antibacterial activity of the rhodanines was further investigated against E. coli SM1411Δ acrAB, a strain that is deficient in the multidrug-resistant AcrAB efflux pump, as described before.

[3] = tested on: Pseudomonas aeruginosa; experiment: MIC with/without PMBN, Pseudomonas aeruginosa; assay type: cell-based; conditions: Pseudomonas aeruginosa ATCC 9721, read-out: MIC
Protocol: as §1

[4] = tested on: Escherichia coli Δ acrAB; experiment: MIC against E. coli 1411 and AcrAB efflux pump deficient E. coli SM1411Δ acrAB; assay type: cell-based
Protocol: as §1

[5] = tested on: Klebsiella pneumoniae; experiment: MIC with/without PMBN, Klebsiella pneumoniae; assay type: cell-based
Protocol: as §1

[6] = tested on: Pseudomonas aeruginosa; experiment: MIC with/without sub-MIC colistin, Pseudomonas aeruginosa; assay type: cell-based; conditions: for MIC: Pseudomonas aeruginosa ATCC 921, read-out: MIC
Protocol: as §1

[7] = tested on: Escherichia coli O157:H7; experiment: MIC with/without sub-MIC colistin, Escherichia coli O157:H7; assay type: cell-based
Protocol: as §1

[8] = tested on: Salmonella Typhimurium; experiment: MIC with/without sub-MIC colistin, Salmonella Typhimurium; assay type: cell-based; conditions: Salmonella Typhimurium ATCC 700720; for MIC: read-out: MIC
Protocol: as §1

[9] = tested on: Klebsiella pneumoniae; experiment: MIC with/without sub-MIC colistin, Klebsiella pneumoniae; assay type: cell-based
Protocol: as §1

[10] = tested on: Acinetobacter baumannii; experiment: MIC with/without PMBN, Acinetobacter baumannii; assay type: cell-based; conditions: read-out: MIC
Protocol: as §1

[11] = tested on: Acinetobacter baumannii; experiment: MIC with/without sub-MIC colistin, Acinetobacter baumannii; assay type: cell-based; conditions: for MIC: read-out: MIC
Protocol: as §1

[12] = tested on: Salmonella Typhimurium; experiment: MIC with/without PMBN, Salmonella Typhimurium; assay type: cell-based; conditions: Salmonella Typhimurium ATCC 700720, read-out: MIC
Protocol: as §1

`NC(=O)[C@H](Cc1ccccc1)N1C(=O)/C(=C/c2cccc(-c3ccc(Cl)c(Cl)c3)c2)SC1=S` [Rh 10, (L,Z)-2-(5-((3',4'-dichloro-[1,1'-biphenyl]-3-yl)methylene)-4-oxo-2-thioxothiazolidin-3-yl)-3-phenylpropanamide] was tested, and the “antibacterial activity in the presence or absence of HSA” value (shortened to “antibacterial activity”) [1] was “not active”, the MIC ([1]; 24 h, Media TSB + 4% HSA) was over 64 µM and the MIC ([1]; Media TSB) was over 64 µM.
In the case of `CC[C@H]1OC(=O)[C@H](C)[C@@H](O[C@H]2C[C@@](C)(OC)[C@@H](O)[C@H](C)O2)[C@H](C)[C@@H](O[C@@H]2O[C@H](C)C[C@H](N(C)C)[C@H]2O)[C@](C)(O)C[C@@H](C)C(=O)[C@H](C)[C@@H](O)[C@]1(C)O` [Erythromycin, erythromycin, reference compound], the MIC ([2]; Escherichia coli O157:H7 ATCC 35150, PMBN (+) 4 μg/mL, read-out: MIC) is reported as 4 µM (≈ 2.94 µg/mL), the MIC ([2]; Escherichia coli O157:H7 ATCC 700728, PMBN (+) 4 μg/mL, read-out: MIC) is reported as 2 µM (≈ 1.47 µg/mL) and the MIC ([2]; Escherichia coli, ATCC35150) is reported as 128 µM (≈ 93.9 µg/mL). For the same molecule, the MIC ([2]; Escherichia coli, ATCC700728) was 32 µM (≈ 23.5 µg/mL), the MIC ([3]; ATCC9721, PMBN (-)) was 64 µM (≈ 47 µg/mL) and the MIC ([3]; PMBN (+) 4 μg/mL) was 1 µM (≈ 0.734 µg/mL). It also gave an MIC ([4]; E.coli 1411) of over 64 µM, an MIC ([4]; E.coli 1411 SM (Δ acrAB, AcrAB efflux pump deficient)) of 2 µM (≈ 1.47 µg/mL) and an MIC ([5]; Klebsiella pneumoniae ATCC BAA 1706, PMBN (+) 4 μg/mL) of 64 µM (≈ 47 µg/mL). For the same molecule, the MIC ([5]; Klebsiella pneumoniae ATCC BAA 2146, PMBN (+) 4 μg/mL) was over 64 µM, the MIC ([5]; Klebsiella pneumoniae, BAA1706) was over 128 µM and the MIC ([5]; Klebsiella pneumoniae, BAA2146) was over 128 µM. For the same molecule, the MIC ([6]; ATCC921, colistin (-)) was 64 µM (≈ 47 µg/mL), the MIC ([6]; colistin (+) […]) was 16 µM (≈ 11.7 µg/mL) and the MIC ([7]; Escherichia coli O157:H7 ATCC 35150, colistin (+) […], read-out: MIC) was at most 0.5 µM. It also gave an MIC ([7]; Escherichia coli O157:H7 ATCC 700728, colistin (+) […], read-out: MIC) of at most 0.5 µM, an MIC ([7]; Escherichia coli, ATCC35150) of 32 µM (≈ 23.5 µg/mL) and an MIC ([7]; Escherichia coli, ATCC700728) of 32 µM (≈ 23.5 µg/mL). For the same molecule, the MIC ([8]; colistin (+) […]) was 16 µM (≈ 11.7 µg/mL), the MIC ([8]; Salmonella enterica, ATCC 700720 / TYPHIMURIUM, colistin (-)) was 64 µM (≈ 47 µg/mL) and the MIC ([9]; Klebsiella pneumoniae ATCC BAA 2146, colistin (+) […]) was over 64 µM. The MIC ([9]; Klebsiella pneumoniae, BAA2146) was over 128 µM, the MIC ([10]; ATCCBAA747, Acinetobacter baumannii ATCC BAA747, PMBN (-)) was 4 µM (≈ 2.94 µg/mL) and the MIC ([10]; ATCCBAA19606, Acinetobacter baumannii ATCC BAA19606, PMBN (-)) was 16 µM (≈ 11.7 µg/mL). For the same molecule, the MIC ([10]; Acinetobacter baumannii ATCC BAA747, PMBN (+) 4 μg/mL) was at most 0.5 µM, the MIC ([10]; Acinetobacter baumannii ATCC BAA19606, PMBN (+) 4 μg/mL) was 2 µM (≈ 1.47 µg/mL) and the MIC ([11]; ATCCBAA747, Acinetobacter baumannii ATCC BAA747, colistin (-)) was 4 µM (≈ 2.94 µg/mL). The MIC ([11]; ATCCBAA19606, Acinetobacter baumannii ATCC BAA19606, colistin (-)) was 16 µM (≈ 11.7 µg/mL), the MIC ([11]; Acinetobacter baumannii ATCC BAA747, colistin (+) […]) was 1 µM (≈ 0.734 µg/mL) and the MIC ([11]; Acinetobacter baumannii ATCC BAA19606, colistin (+) […]) was 2 µM (≈ 1.47 µg/mL). The MIC ([12]; PMBN (+) 4 μg/mL) was 4 µM (≈ 2.94 µg/mL) and the MIC ([12]; Salmonella enterica, ATCC 700720 / TYPHIMURIUM, PMBN (-)) was 64 µM (≈ 47 µg/mL).
With colistin [reference compound] the MIC of colistin ([6]; Pseudomonas aeruginosa, ATCC921) was 1 µg/mL, the MIC of colistin ([7]; Escherichia coli O157:H7 ATCC 35150) was 0.125 µg/mL and the MIC of colistin ([7]; Escherichia coli O157:H7 ATCC 700728) was 0.0625 µg/mL. The MIC of colistin [8] was 1 µg/mL, the MIC of colistin ([9]; Klebsiella pneumoniae ATCC BAA 2146) was 0.5 µg/mL and the MIC of colistin ([11]; Acinetobacter baumannii ATCC BAA747) was 0.25 µg/mL. It also gave an MIC of colistin ([11]; Acinetobacter baumannii ATCC BAA19606) of 0.5 µg/mL.
For `CCOC(=O)[C@H](Cc1ccccc1)N1C(=O)/C(=C/c2cccc(-c3ccc(Cl)c(Cl)c3)c2)SC1=S` [Rh 8, Ethyl (L,Z)-2-(5-((3',4'-dichloro-[1,1'-biphenyl]-3-yl)methylene)-4-oxo-2-thioxothiazolidin-3-yl)-3-phenylpropanoate], the “antibacterial activity” value [1] was “not active”, the MIC ([1]; 24 h, Media TSB + 4% HSA) was over 64 µM and the MIC ([1]; Media TSB) was over 64 µM.
`CCOC(=O)[C@H](Cc1ccccc1)N1C(=O)/C(=C/c2cccc(Cc3ccc(Cl)c(Cl)c3)c2)SC1=S` [Rh 9, Ethyl (L,Z)-2-(5-(3-(3,4-dichlorobenzyl)benzylidene)-4-oxo-2-thioxothiazolidin-3-yl)-3-phenylpropanoate] was tested, and the “antibacterial activity” value [1] was “not active”, the MIC ([1]; 24 h, Media TSB + 4% HSA) was over 64 µM and the MIC ([1]; Media TSB) was over 64 µM.
